Source: patent US10597388B2, “Pyridazinone herbicides” (FMC CORPORATION, priority 2014, dated 2020)

Experiments:
Test in all cases: Test E greenhouse herbicide test, pre- and postemergence
Type in all cases: in vivo
Details in all cases: Preemergence
[1] = system: arrowleaf sida (Sida rhombifolia)
Description: (§1) Seeds of plant species selected from corn (Zea mays), soybean (Glycine max), velvetleaf (Abutilon theophrasti), lambsquarters (Chenopodium album), wild poinsettia (Euphorbia heterophylla), pigweed, palmer (palmer pigweed, Amaranthus palmeri), waterhemp (common waterhemp, Amaranthus rudis), surinam grass (Brachiaria decumbens), crabgrass, large (large crabgrass, Digitaria sanguinalis), crabgrass, Brazilian (Brazilian crabgrass, Digitaria horizontalis), panicum, fall (fall panicum, Panicum dichotomiflorum), foxtail, giant (giant foxtail, Setaria faberii), foxtail, green (green foxtail, Setaria viridis), goosegrass (Eleusine indica), johnsongrass (Sorghum halepense), ragweed (common ragweed, Ambrosia elatior), barnyardgrass (Echinochloa crus-galli), sandbur (southem sandbur, Cenchrus echinatus), arrowleaf sida (Sida rhombifolia), Italian ryegrass (Lolium multiflorum), dayflower (Virginia (VA) dayflower, Commelina virginica), field bindweed (Convolvulus arvensis), momingglory (Ipomoea coccinea), nightshade (eastern black nightshade, Solanum ptycanthum), kochia (Kochia scoparia), nutsedge, yellow (yellow nutsedge, Cyperus esculentus), horseweed (Conyza canadensis), and beggarticks (hairy beggarticks, Bidens pilosa), were planted into a silt loam soil and treated preemergence with test chemicals formulated in a non-phytotoxic solvent mixture which included a surfactant.
(§2) At the same time, plants from these crop and weed species and also waterhemp_RES1, (ALS & Triazine resistant common waterhemp, Amaranthus rudis), and waterhemp_RES2, (ALS & HPPD resistant common waterhemp, Amaranthus rudis) were planted in pots containing Redi-Earth® planting medium (Scotts Company, 14111 Scottslawn Road, Marysville, Ohio 43041) comprising spaghnum peat moss, vermiculite, wetting agent and starter nutrients were treated with postemergence applications of test chemicals formulated in the same manner. Plants ranged in height from 2 to 18 cm for postemergence treatments (1- to 4-leaf stage). Treated plants and controls were maintained in a greenhouse for 14 to 21 d, after which time all species were compared to controls and visually evaluated. Plant response ratings, summarized in Table E, are based on a scale of 0 to 100 where 0 is no effect and 100 is complete control. A dash (-) response means no test result.

[2] = system: crabgrass, Brazilian (Brazilian crabgrass, Digitaria horizontalis)
Description: as §1, §2

[3] = system: foxtail, giant (giant foxtail, Setaria faberii)
Description: as §1, §2

[4] = system: foxtail, green (green foxtail, Setaria viridis)
Description: as §1, §2

[5] = system: horseweed (Conyza canadensis)
Description: as §1, §2

[6] = system: johnsongrass (Sorghum halepense)
Description: as §1, §2

[7] = system: kochia (Kochia scoparia)
Description: as §1, §2

[8] = system: lambsquarters (Chenopodium album)
Description: as §1, §2

[9] = system: nutsedge, yellow (yellow nutsedge, Cyperus esculentus)
Description: as §1, §2

[10] = system: pigweed, palmer (palmer pigweed, Amaranthus palmeri)
Description: as §1, §2

[11] = system: ragweed (common ragweed, Ambrosia elatior)
Description: as §1, §2

[12] = system: sandbur (southem sandbur, Cenchrus echinatus)
Description: as §1, §2

[13] = system: soybean (Glycine max)
Description: as §1, §2

[14] = system: velvetleaf (Abutilon theophrasti)
Description: as §1, §2

[15] = system: waterhemp (common waterhemp, Amaranthus rudis)
Description: as §1, §2

[16] = 62 g ai/ha, scale 0 to 100 (0 no effect, 100 complete control)
[17] = 31 g ai/ha, scale 0 to 100, 0 no effect, 100 complete control
[18] = 125 g ai/ha, visual, scale 0 no effect to 100 complete control
[19] = 250 g ai/ha, visual, scale 0 no effect to 100 complete control
[20] = 125 g ai/ha, scale 0 to 100 (0 no effect, 100 complete control)

CC(=O)Oc1c(C)nn(C)c(=O)c1-c1c(C)sc2c(C)cc(C)cc12 [Compound 27]
Plant response rating, Arrowleaf Sida [1, 16]: 65 | Plant response rating, Arrowleaf Sida [1, 17]: 40 | Plant response rating, Arrowleaf Sida [1, 18]: 75 | Plant response rating, Arrowleaf Sida [1, 19]: 35 | Plant response rating, Crabgrass, Brazil [2, 16]: 70 | Plant response rating, Crabgrass, Brazil [2, 17]: 70 | Plant response rating, Crabgrass, Brazil [2, 18]: 95 | Plant response rating, Crabgrass, Brazil [2, 19]: 95 | Plant response rating, Foxtail, Giant [3, 16]: 98 | Plant response rating, Foxtail, Giant [3, 17]: 95 | Plant response rating, Foxtail, Giant [3, 18]: 100 | Plant response rating, Foxtail, Giant [3, 19]: 100 | Plant response rating, Foxtail, Green [4, 16]: 100 | Plant response rating, Foxtail, Green [4, 17]: 75 | Plant response rating, Foxtail, Green [4, 18]: 100 | Plant response rating, Foxtail, Green [4, 19]: 100 | Plant response rating, Horseweed [5, 16]: 100 | Plant response rating, Horseweed [5, 17]: 100 | Plant response rating, Horseweed [5, 18]: 100 | Plant response rating, Horseweed [5, 19]: 100 | Plant response rating, Johnsongrass [6, 16]: 75 | Plant response rating, Johnsongrass [6, 17]: 70 | Plant response rating, Johnsongrass [6, 18]: 75 | Plant response rating, Johnsongrass [6, 19]: 70 | Plant response rating, Kochia [7, 16]: 25 | Plant response rating, Kochia [7, 17]: 0 | Plant response rating, Kochia [7, 18]: 80 | Plant response rating, Kochia [7, 19]: 100 | Plant response rating, Lambsquarters [8, 16]: 100 | Plant response rating, Lambsquarters [8, 17]: 100 | Plant response rating, Lambsquarters [8, 18]: 100 | Plant response rating, Lambsquarters [8, 19]: 100 | Plant response rating, Nutsedge, Yellow [9, 16]: 15 | Plant response rating, Nutsedge, Yellow [9, 20]: 98 | Plant response rating, Nutsedge, Yellow [9, 17]: 10 | Plant response rating, Nutsedge, Yellow [9, 19]: 80 | Plant response rating, Pigweed, Palmer [10, 16]: 60 | Plant response rating, Pigweed, Palmer [10, 20]: 85 | Plant response rating, Pigweed, Palmer [10, 19]: 85 | Plant response rating, Ragweed [11, 16]: 95 | Plant response rating, Ragweed [11, 20]: 100 | Plant response rating, Ragweed [11, 17]: 95 | Plant response rating, Ragweed [11, 19]: 100 | Plant response rating, Sandbur [12, 16]: 40 | Plant response rating, Sandbur [12, 20]: 90 | Plant response rating, Sandbur [12, 17]: 30 | Plant response rating, Sandbur [12, 19]: 90 | Plant response rating, Soybean [13, 16]: 0 | Plant response rating, Soybean [13, 20]: 0 | Plant response rating, Soybean [13, 17]: 0 | Plant response rating, Soybean [13, 19]: 0 | Plant response rating, Velvetleaf [14, 16]: 80 | Plant response rating, Velvetleaf [14, 20]: 95 | Plant response rating, Velvetleaf [14, 17]: 50 | Plant response rating, Velvetleaf [14, 19]: 100 | Plant response rating, Waterhemp [15, 16]: 90 | Plant response rating, Waterhemp [15, 20]: 85 | Plant response rating, Waterhemp [15, 17]: 95 | Plant response rating, Waterhemp [15, 19]: 95

C#CCOC(=O)Oc1c(C)nn(C)c(=O)c1-c1c(C)sc2ccc(C)cc12 [Compound 87]
Plant response rating, Arrowleaf Sida [1, 16]: 60 | Plant response rating, Arrowleaf Sida [1, 20]: 70 | Plant response rating, Arrowleaf Sida [1, 17]: 0 | Plant response rating, Arrowleaf Sida [1, 19]: 80 | Plant response rating, Crabgrass, Brazil [2, 16]: 80 | Plant response rating, Crabgrass, Brazil [2, 20]: 90 | Plant response rating, Crabgrass, Brazil [2, 17]: 60 | Plant response rating, Crabgrass, Brazil [2, 19]: 100 | Plant response rating, Foxtail, Giant [3, 16]: 65 | Plant response rating, Foxtail, Giant [3, 20]: 70 | Plant response rating, Foxtail, Giant [3, 17]: 25 | Plant response rating, Foxtail, Giant [3, 19]: 95 | Plant response rating, Foxtail, Green [4, 16]: 20 | Plant response rating, Foxtail, Green [4, 20]: 60 | Plant response rating, Foxtail, Green [4, 17]: 20 | Plant response rating, Foxtail, Green [4, 19]: 80 | Plant response rating, Johnsongrass [6, 16]: 65 | Plant response rating, Johnsongrass [6, 20]: 70 | Plant response rating, Johnsongrass [6, 19]: 75 | Plant response rating, Kochia [7, 16]: 100 | Plant response rating, Kochia [7, 20]: 100 | Plant response rating, Kochia [7, 17]: 65 | Plant response rating, Kochia [7, 19]: 100 | Plant response rating, Lambsquarters [8, 16]: 100 | Plant response rating, Lambsquarters [8, 20]: 100 | Plant response rating, Lambsquarters [8, 17]: 100 | Plant response rating, Lambsquarters [8, 19]: 100 | Plant response rating, Nutsedge, Yellow [9, 16]: 60 | Plant response rating, Nutsedge, Yellow [9, 20]: 65 | Plant response rating, Nutsedge, Yellow [9, 17]: 0 | Plant response rating, Nutsedge, Yellow [9, 19]: 60 | Plant response rating, Pigweed, Palmer [10, 16]: 65 | Plant response rating, Pigweed, Palmer [10, 20]: 75 | Plant response rating, Pigweed, Palmer [10, 17]: 0 | Plant response rating, Pigweed, Palmer [10, 19]: 90 | Plant response rating, Ragweed [11, 16]: 95 | Plant response rating, Ragweed [11, 20]: 98 | Plant response rating, Ragweed [11, 17]: 98 | Plant response rating, Ragweed [11, 19]: 100 | Plant response rating, Sandbur [12, 16]: 65 | Plant response rating, Sandbur [12, 20]: 75 | Plant response rating, Sandbur [12, 17]: 25 | Plant response rating, Sandbur [12, 19]: 85 | Plant response rating, Soybean [13, 16]: 0 | Plant response rating, Soybean [13, 20]: 0 | Plant response rating, Soybean [13, 17]: 0 | Plant response rating, Soybean [13, 19]: 0 | Plant response rating, Velvetleaf [14, 16]: 60 | Plant response rating, Velvetleaf [14, 20]: 90 | Plant response rating, Velvetleaf [14, 17]: 0 | Plant response rating, Velvetleaf [14, 19]: 95 | Plant response rating, Waterhemp [15, 16]: 90 | Plant response rating, Waterhemp [15, 20]: 90 | Plant response rating, Waterhemp [15, 17]: 75 | Plant response rating, Waterhemp [15, 19]: 100
